The numbers were not newly measured in patent US6887842B1, “Modulating a pharmacokinetic property of a drug by administering a bifunctional molecule containing the drug” (The Board of Trustees of the Leland Stanford Junior …, priority 1999, dated 2005), which cites them from elsewhere.

Like-named read-outs stand apart in the source and are kept apart here.

As usually defined, the half-life is the time needed for the level to fall by half in the phase considered.

For series [1] the following is noted: in vivo.
The conditions of series [2]: in vivo. This is another data set of the same source.
Another series addresses albumin (Homo sapiens, UniProt P02768).
For series [3] the following is noted: in vivo. The source holds these as a separate data set.

albumin, sequence (P02768 25-609, species assumed): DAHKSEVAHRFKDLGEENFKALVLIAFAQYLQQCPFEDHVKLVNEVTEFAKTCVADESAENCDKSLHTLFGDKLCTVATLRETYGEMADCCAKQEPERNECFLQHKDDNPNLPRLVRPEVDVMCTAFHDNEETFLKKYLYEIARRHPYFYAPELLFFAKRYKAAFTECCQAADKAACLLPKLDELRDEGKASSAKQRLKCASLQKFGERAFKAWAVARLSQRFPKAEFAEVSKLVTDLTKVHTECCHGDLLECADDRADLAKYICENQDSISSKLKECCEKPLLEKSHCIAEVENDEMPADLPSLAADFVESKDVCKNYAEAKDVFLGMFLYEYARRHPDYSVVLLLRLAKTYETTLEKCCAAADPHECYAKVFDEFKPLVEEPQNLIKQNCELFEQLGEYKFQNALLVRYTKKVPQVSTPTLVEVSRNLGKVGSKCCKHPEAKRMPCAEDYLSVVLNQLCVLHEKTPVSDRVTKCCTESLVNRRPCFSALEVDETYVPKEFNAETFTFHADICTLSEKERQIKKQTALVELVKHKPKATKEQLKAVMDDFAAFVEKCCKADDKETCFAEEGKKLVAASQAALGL

Take `CC[C@H](C)C(=O)O[C@H]1C[C@@H](C)C=C2C=C[C@H](C)[C@H](CC[C@@H]3C[C@@H](O)CC(=O)O3)[C@H]21` [lovastatin]: the hepatic first-pass clearance result in series [1] is on record as “extensive hepatic first-pass clearance”.
With `CC[C@H](C)C(=O)O[C@H]1C[C@H](O)C=C2C=C[C@H](C)[C@H](CC[C@@H](O)C[C@@H](O)CC(=O)O)[C@H]21` [pravastatin], the hepatic first-pass clearance result in series [1] is “extensive hepatic first-pass clearance”.
As to `C=CCN1CC[C@]23c4c5ccc(O)c4O[C@H]2C(=O)CC[C@@]3(O)[C@H]1C5` [naloxone], the hepatic first-pass clearance result in series [1] is “extensive hepatic first-pass clearance”.
Regarding FK506, in series [2], the half-life is 30 h.
For `CO[C@H]1C[C@@H]2CC[C@@H](C)[C@@](O)(O2)C(=O)C(=O)N2CCCC[C@H]2C(=O)O[C@H]([C@H](C)C[C@@H]2CC[C@@H](O)[C@H](OC)C2)CC(=O)[C@H](C)/C=C(\C)[C@@H](O)[C@@H](OC)C(=O)[C@H](C)C[C@H](C)/C=C/C=C/C=C/1C` [rapamycin], in series [2], the half-life is 60 h.
`COc1ccc2cc([C@H](C)C(=O)O)ccc2c1` [naproxen]: the “degree of binding to albumin” value on albumin (plasma) is listed as “extensive binding to albumin”.
Regarding `Cc1ccc2nc(N)[nH]c(=O)c2c1Sc1ccncc1` [AG 337], the half-life in series [2] was 2 to 3 h.
As for `Sc1ncnc2nc[nH]c12` [mercaptopurine], the hepatic first-pass clearance result in series [1] is given as “extensive hepatic first-pass clearance”.
As to `Cc1noc(NS(=O)(=O)c2ccc(N)cc2)c1C` [Sulfisoxazole], the “degree of binding to albumin” value at albumin is “extensively bound to albumin”. For the same compound, the “distribution (extracellular space)” value in series [3] is given as “found almost exclusively in the extracellular space”.
Turning to `CN(C)CCCN1c2ccccc2Sc2ccc(Cl)cc21` [chlorpromazine], on albumin (plasma), the “degree of binding to albumin” value is recorded as “extensively bound to albumin”.
For `COc1ccc([C@@H]2Sc3ccccc3N(CCN(C)C)C(=O)[C@@H]2OC(C)=O)cc1` [diltiazem], the hepatic first-pass clearance entry in series [1] is reported as “extensive hepatic first-pass clearance”.
